Experimental data from a melting point compilation (Tetko et al.; mined from patent text by program, amines drawn as free bases though some values may be those of a salt).

| SMILES | melting point |
| --- | --- |
| CS(=O)(=O)c1ccccc1-c1cc(CCO)nn1C1CCCCC1 | 108 °C |
| Cc1cc(C)c(-n2ccc3c(Cl)nnc(Cl)c32)c(C)c1 | 169 to 170 °C |
| CC1CCC2(C)C(=CCC3C4CC(Cl)C(=O)C4(C)CCC32)C1 (centres undefined) | 159 to 165 °C |
| CC(=O)NC(C)(C)c1ccc(CN2CCN(c3ccc(F)cc3)CC2)cc1 | 104 to 106 °C |
| COC(=O)c1ncn(CCCc2ccc(OCc3coc(/C=C/c4ccccc4)n3)cc2)c1C(=O)OC | 85 to 86 °C |
| COc1cc2oc(=O)c3c(c2cc1OC)CCN(CCN1CC2CCC1CC2)C3 | 133 to 135 °C |
| CCOC(=O)c1nc2c(=O)[nH]c3cc(S(C)(=O)=O)ccc3n2c1C | > 250 °C |
| Cc1c(C)c(N2CCN(c3ccc(C(C)C)cc3)CC2)c(C)c2c1OC(C)(CO)C2 (centres undefined) | 160 to 163 °C |
| CCCCCCCCCOc1cc(C(=O)Nc2c(Cl)cncc2Cl)ccc1OC | 151 to 153 °C |
| CCOC(=O)c1cc(=O)c2cccc(COc3ccc(OCc4ccc5ccccc5n4)cc3)c2o1 | 124 to 127 °C |
| Oc1cnccc1CCCOc1cccnc1Oc1cccc(Br)c1 | 116 to 118 °C |
| Cc1cc(CC(=O)N[C@H]2CC[C@H](CCN3CCC(c4cccc5c4CCO5)CC3)CC2)on1 | 188 °C |
| CC(C)(C)c1ccc(C(=O)Nc2cn3nc(-c4cnn(CCO)c4)ccc3n2)cc1 | 226 to 229 °C |
| C=Cc1cnc2c(NC(=O)c3c(Cl)cccc3Cl)cccc2c1CO | 243 to 244 °C |
| NC(=O)c1cc(Cl)c(F)c(Cl)c1F | 145 to 147 °C |
| CC(=NOCCO)c1ccc(-c2ccccc2)cc1 | 128 to 130 °C |
| Cc1c(Cl)sn(-c2ccccc2)c1=O | 60 to 68 °C |
| CC(C)c1ccc(C2(NC(=O)c3ccccc3)C(=O)c3ccccc3C2=O)c(OC(=O)c2ccccc2)c1 | 138 to 140 °C |
| CC(C)Oc1ccccc1N1CCN(Cc2cccc(CC3NC(=O)NC3=O)c2)CC1 (centres undefined) | 178 to 181 °C |
| C(=N\c1c(-c2ccccc2)cc(-c2ccccc2)cc1-c1ccccc1)/c1ccccn1 | 141 to 144 °C |
| CC(C)(C)c1cccc(C[C@@H](NC(=O)c2cccc3c2C=CCCC3)[C@@H](O)c2cccc(Cl)c2)c1 (racemic) | 104 to 105 °C |
| NC1=Nc2ccc(I)cc2C(c2ccccc2F)=NC1 | 219 to 221 °C |
| O=C(c1ccc(Cl)cc1)c1ccc2c(c1)C(c1cccc(Cl)c1)=NCC(=S)N2 | 125 °C |
| CCCNC(=O)[C@H](C)C[C@H](O)[C@H](CC1CCCCC1)NC(=O)[C@H](Cc1cscn1)NC(=O)OC(C)(C)C | 182 to 184 °C |
| CC1C(=O)Nc2c(Oc3ccccc3Cl)cccc21 (centres undefined) | 138 to 139 °C |

| SMILES | melting point |
| --- | --- |
| COc1cc(OC)nc(NC(=O)NS(=O)(=O)c2ncccc2OCCCl)n1 | 156 to 158 °C |
| CCOCc1nc2c(N)nc3ccccc3c2n1CC1(N)CCCCC1 | 166 to 168 °C |
| Cc1ccc([N+](=O)[O-])cc1Nc1nnn[nH]1 | 245 to 249 °C |
| COC(=O)c1sccc1S(=O)(=O)NC(=O)Nc1nc(C)cc(C)n1 | 191 to 193 °C |
| CCN(CC)CCNC(=S)N(CCS(=O)(=O)c1ccccc1)C(C)C | 81.5 to 82.5 °C |
| CCc1noc(-c2cccc3c2C(=O)N(C)Cc2c(-c4nc(CC)no4)ncn2-3)n1 | 173 to 174 °C |
| Cc1cc(Cn2cnc(Cl)c2CC#N)ccc1OCc1ccccc1 | 102 to 105 °C |
| O=c1nc(-c2ccccn2)sc2cc(Cl)ccc12 | 245 to 246 °C |
| CCC(=O)c1nc(C(C)(C)C)c(O)c(C(C)(C)C)n1 | 123 to 125 °C |
| O=C(Nc1ccc(-n2nc(C(F)(F)F)cc2C(F)(F)F)cc1)C1CC=CCC1 (centres undefined) | 177 to 178 °C |
| Cc1cc(=O)c(-c2ccc(F)cc2)c(C)[nH]1 | > 250 °C |
| OC1(c2ccncc2)Cc2ccccc2C2=NCCN21 (centres undefined) | 162 to 164 °C |
| COC(=O)c1nccc(N)n1 | 140 to 142 °C |
| CS(=O)c1ccc(Oc2ccc(Cl)c(Cl)c2)cc1 (centres undefined) | 92 to 93.5 °C |
| CC(C)c1nc(CN(C)C(=O)N[C@H](C(=O)O)C(C)C)cs1 | 82.8 to 93.8 °C |
| CN1CCC(c2c[nH]c3ccc(NC(=O)c4cc5ccccc5s4)nc23)CC1 | 202 to 204 °C |
| Nc1cc(-n2cccn2)nc(-c2ccc(Cl)o2)n1 | 210 to 211 °C |
| CC(=O)c1cn(S(=O)(=O)c2ccccc2)c2nccc(OC3CCCCC3)c12 | 107 to 109 °C |
| CC(CO)(CO)NS(=O)(=O)c1cccc(C#Cc2cnn3c(C(F)F)cc(-c4ccc(C(F)(F)F)cc4)nc23)c1 | 172 to 174 °C |
| COc1ccc(CN2CCC(NC(=O)OC(C)(C)C)CC2)cc1 | 95 to 97 °C |
| C1CCCCN2CCOCCOCCN(CCC1)CCOCCOCC2 | 90 to 91 °C |
| C=C1[C@H](O)C[C@H](O[Si](C)(C)C(C)(C)C)[C@H]1CO[Si](C)(C)C(C)(C)C | 64 to 66 °C |
| CCCOc1ccc(Br)c2c(=O)c3ccccc3sc12 | 112 to 114 °C |
| CC1=C(C(=O)OC(C)C)C(c2ccccc2F)c2c[nH]nc2N1 (centres undefined) | 218 to 220 °C |
| O=C(NCC12CC3CC(CC(C3)C1)C2)c1cc(-c2cc(F)ccc2C(=O)O)ccc1Cl | 120 to 124 °C |

| SMILES | melting point |
| --- | --- |
| CCOC(=O)C1Cc2cc3c(CC)noc3c(Cl)c2O1 (centres undefined) | 95 to 96 °C |
| Cc1cc(F)ccc1-c1ccc(S(=O)(=O)N2c3ccccc3CC2C(=O)NCCOc2cc(F)c(C(=O)O)c(F)c2)cc1 (centres undefined) | 97 to 111 °C |
| COc1ccc(CC2N(C)CCC(OC)(OC)C2(C)C)cc1 (centres undefined) | 91 to 92.5 °C |
| Cc1nn(-c2cc3nc(S)sc3cc2Cl)c(=O)n1C(F)F | 201 to 203 °C |
| OCC(CO)SCc1ccc(Cl)cc1 | 70 to 75 °C |
| NS(=O)(=O)c1ccc(N2C(=O)CN(c3ccccc3)C2=O)cc1 | 291 to 296 °C |
| COCC(=O)c1cnc2c(OC)cccc2c1Nc1ccccc1C | 122 to 123 °C |
| CCOC(=O)CSc1nccc(NCc2ccc(Cl)cc2)n1 | 175 to 178 °C |
| Oc1ccc([C@H]2c3ccc(OCc4ccccc4)cc3OC[C@H]2c2ccccc2)cc1 (racemic) | 204 to 205 °C |
| CCOC(=O)CCc1cccc(C(=O)c2cccc(C(=O)OCC)c2)c1C=CCCCCO | 48 to 50 °C |
| Cn1c2ccccc2c(=NN=C2NCCS2)c2c(Cl)cccc21 | 206 to 207 °C |
| CCCCc1oc2ccccc2c1C=NOCCCOc1ccc(C(=O)O)cc1-c1ccc(C(F)(F)F)cc1 | 140 °C |
| CCCc1ccc2nnc(C(=O)OCC)cc2c1 | 88 to 89 °C |
| COc1ccc(N2C(=O)[C@@H](NC(=O)Cc3ccccc3)[C@H]2C=CC(=O)[C@@H]2CCCO2)cc1 | 159 to 162 °C |
| Cc1cccc(C(C)C)c1NC(=O)NCC1(c2ccccc2)CCCC1 | 157 to 159 °C |
| COP(=O)(OC)C(C)NC(=O)C(C)NC(=O)C(C)NC(=O)CNC(C)(C)C (centres undefined) | 148 to 152 °C |
| CCOC(=O)Nc1ccc(NCc2coc3ccc(F)cc23)cc1N | 150 to 151 °C |
| O=C(O)[C@H]1C[C@H](NC(=S)Nc2ccccc2)c2c(Cl)cc(Cl)cc2N1 (relative stereo) | 186 to 187 °C |
| COc1ccc(-c2ccc(-c3ccccc3Cl)n2Cc2cccc(N)n2)cc1 | 147 to 148 °C |
| CC(C)c1ccc(S(=O)(=O)n2c(Cc3ccc(C(=O)O)s3)cc3cc(C(F)(F)F)ccc32)cc1 | 199 to 216 °C |
| O=c1[nH]c(N2CCOCC2)nc2c(N3CCCCCC3)nc(N3CCOCC3)cc12 | 240 °C |
| Nc1nc(Oc2ccccc2)c2ncn(CCC(CO)CO)c2n1 | 173 to 175 °C |
| COc1ccc2cc(C(=O)O)sc(=O)c2c1 | 291 to 292 °C |
| COc1ccn2cc(-c3ccc(C)c(C)c3)nc2c1 | 175 °C |
| CC(C)(C)OC(=O)NCCCc1ccc(OCCC2Oc3ccccc3N(Cc3cccc(Cl)c3)C2=O)cc1 (centres undefined) | 75 to 81 °C |

| SMILES | melting point |
| --- | --- |
| O=[N+]([O-])c1cc(O)c(Br)cc1F | 124 to 126 °C |
| OC[C@H]1O[C@@H]1c1ccc(Cl)cc1 | 59 to 68 °C |
| COc1ccc(-c2cc(-c3ccccc3)nc(C)c2C(=O)Cl)cc1OC | 140 °C |
| O=C1CC(=O)/C(=C/c2ccccc2)N1 | 186 to 187 °C |
| N#CCN1CCC(c2noc3cc(F)ccc23)CC1 | 130 to 132 °C |
| Cc1cn(-c2ccc(N)c(C(F)(F)F)c2)c(C)n1 | 126 to 127 °C |
| COc1ccc(CCNCC(O)c2cccc(Cl)c2)cc1 (centres undefined) | 101 to 103 °C |
| O=C1N[C@H](Cc2ccc(F)cc2)[C@H](c2ccc(F)cc2)O1 (racemic) | 197 to 198 °C |
| CCn1c(C(O)(C2CCCCC2)C2CCCCC2)nc(-c2ccncc2)c1-c1ccc(Cl)cc1 | 221 to 224 °C |
| CCCCOc1c(CNC(=O)OC(C)(C)C)n(CC(C)C)c(=O)c2ccc(C(C)=O)cc12 | 161 to 162 °C |
| COC(=O)C(C)(C)OCc1cc2cc(C(F)(F)F)ccc2n1S(=O)(=O)c1cc(C)cc(C)c1 | 132 to 134 °C |
| COC(=O)COCc1cc(C(C)(C)C)c(O)c(C(C)(C)C)c1 | 132 to 133 °C |
| O=C1CCCN1[C@@H]1c2ccccc2OCC[C@H]1O (relative stereo) | 151 to 153 °C |
| CC(C)(C)NS(=O)(=O)c1cnc(-c2cn(-c3nc(-c4ccc(C(F)(F)F)cc4)cc(C(F)(F)F)n3)cn2)s1 | 281 °C |
| CC1=NN=C(c2ccc(NC=O)cc2)c2cc3c(cc2C1)OCO3 | 152 to 154 °C |
| COc1cc(-c2ccc3cnc(Nc4ccc(C5CCN(CC(N)=O)CC5)cc4)nn23)c(OC)nn1 | 249 to 251 °C |
| COC(=O)c1ccc2c(c1)OCC2(C)Cc1ccccc1 (centres undefined) | 52 °C |
| CCCCc1ncc(/C=C2\C(=O)NC(=O)N2CCCC)n1Cc1ccc(C(=O)O)cc1 | 163 to 165 °C |
| Cc1c(NC(=O)c2ccc(OC[C@@H]3CCCO3)cc2)ccc2[nH]c(CNCC(C)(C)O)cc12 | 169 to 170 °C |
| COC(=O)c1c(C(=O)NC(C)(C(N)=O)C(C)C)cccc1[N+](=O)[O-] (centres undefined) | 100 to 107 °C |
| N#Cc1ccnc(Nc2ccc(-n3nc(C(F)(F)F)cc3C(F)(F)F)cc2)c1 | 152 to 153 °C |
| CCOC(=O)c1c(C)nc2c(cnn2CC)c1NCCC(C)O (centres undefined) | 94.5 to 96.5 °C |
| O=C(O)CSONC(=O)c1c(Cl)ccc2cc(Cl)cnc12 | 174 °C |
| COCc1c[nH]c2c([N+](=O)[O-])cccc2c1=O | > 250 °C |
